# Test results reported in paper PMC2248166, “Quantitative peptide binding motifs for 19 human and mouse MHC class I molecules derived using positional scanning combinatorial peptide libraries” (Immunome Research, 2008).
# pIC50: −log10 of the molar value. Where a SMILES comes first, the peptide text is derived from it.
# Target: HLA B*0801 (Homo sapiens, UniProt P01889, A93T/A95T/D138N/E176V/E187T/K202T/Q94N/R180D/S35A/V36M/Y33D/Y91F)
# Assay: biochemical
# Assay type: binding
row,SMILES,pIC50
1,CC[C@H](C)[C@H](NC(=O)[C@H](CCCNC(=N)N)NC(=O)[C@@H](NC(=O)[C@H](CCCCN)NC(=O)[C@H](CC(C)C)NC(=O)[C@@H](N)CCCNC(=N)N)[C@@H](C)O)C(=O)N[C@@H](CCCNC(=N)N)C(=O)N[C@@H](CC(N)=O)C(=O)N[C@@H](CC(C)C)C(=O)O [3102.0740] (H-RLKTRIRNL-OH),9.16
2,CC[C@H](C)[C@H](NC(=O)[C@H](CCCNC(=N)N)NC(=O)[C@@H](NC(=O)[C@H](CCCCN)NC(=O)[C@H](CCCCN)NC(=O)[C@@H](N)CO)[C@@H](C)O)C(=O)N[C@@H](CO)C(=O)N[C@@H](CC(=O)O)C(=O)N[C@@H](CC(C)C)C(=O)O [3102.0741] (H-SKKTRISDL-OH),8.55
3,CC(C)C[C@H](NC(=O)[C@H](CCC(=O)O)NC(=O)[C@@H](NC(=O)[C@H](CC(C)C)NC(=O)[C@H](CCCCN)NC(=O)[C@H](CCCNC(=N)N)NC(=O)[C@H](CCCCN)NC(=O)[C@H](C)NC(=O)[C@@H](N)CCC(=O)O)[C@@H](C)O)C(=O)O [3102.0742] (H-EAKRKLTEL-OH),8.60
4,CC[C@H](C)[C@H](NC(=O)[C@H](CCCNC(=N)N)NC(=O)[C@H](CO)NC(=O)[C@H](CCCNC(=N)N)NC(=O)[C@H](CC(C)C)NC(=O)[C@H](C)N)C(=O)N[C@@H](CCCNC(=N)N)C(=O)N[C@@H](CCC(=O)O)C(=O)N[C@@H](CC(C)C)C(=O)O [3102.0743] (H-ALRSRIREL-OH),9.34
5,CSCC[C@H](NC(=O)[C@H](CC(N)=O)NC(=O)[C@H](Cc1ccccc1)NC(=O)[C@H](Cc1ccccc1)NC(=O)[C@H](CCCNC(=N)N)NC(=O)[C@H](CO)NC(=O)[C@H](CC(C)C)NC(=O)[C@H](CC(C)C)NC(=O)[C@H](C)N)C(=O)O [3102.0744] (H-ALLSRFFNM-OH),8.52
6,CC(C)C[C@H](NC(=O)[C@H](Cc1ccc(O)cc1)NC(=O)[C@@H](NC(=O)[C@H](Cc1ccccc1)NC(=O)[C@H](CCCCN)NC(=O)[C@H](CC(C)C)NC(=O)[C@H](CC(C)C)NC(=O)[C@H](C)NC(=O)[C@@H](N)Cc1ccccc1)[C@@H](C)O)C(=O)O [3102.0745] (H-FALLKFTYL-OH),8.80
7,CC(C)C[C@H](NC(=O)[C@@H](NC(=O)[C@H](CCCCN)NC(=O)[C@H](Cc1ccccc1)NC(=O)[C@H](CCCCN)NC(=O)[C@@H](NC(=O)[C@H](CC(N)=O)NC(=O)[C@H](CC(C)C)NC(=O)[C@@H](N)CO)[C@@H](C)O)[C@@H](C)O)C(=O)O [3102.0746] (H-SLNTKFKTL-OH),8.06
8,CC(C)C[C@H](NC(=O)[C@H](CC(N)=O)NC(=O)[C@@H](NC(=O)[C@H](CC(C)C)NC(=O)[C@H](CCCNC(=N)N)NC(=O)[C@H](CCC(N)=O)NC(=O)[C@H](CCCCN)NC(=O)[C@H](CC(C)C)NC(=O)[C@@H](N)[C@@H](C)O)[C@@H](C)O)C(=O)O [3102.0747] (H-TLKQRLTNL-OH),8.77
9,CSCC[C@H](NC(=O)[C@H](CC(N)=O)NC(=O)[C@@H](N)CCC(=O)O)C(=O)N[C@@H](CC(C)C)C(=O)N[C@@H](CCCNC(=N)N)C(=O)N[C@@H](CO)C(=O)N[C@@H](CCSC)C(=O)N1CCC[C@H]1C(=O)N[C@H](C(=O)O)C(C)C [3102.0748] (H-ENMLRSMPV-OH),9.68
10,CSCC[C@H](NC(=O)[C@H](CCCNC(=N)N)NC(=O)[C@H](Cc1ccccc1)NC(=O)[C@@H]1CCCN1C(=O)[C@H](CCSC)NC(=O)[C@H](CCCCN)NC(=O)[C@H](CC(C)C)NC(=O)[C@@H](N)CC(C)C)C(=O)N[C@H](C(=O)O)C(C)C [3102.0749] (H-LLKMPFRMV-OH),8.15
11,CC(C)C[C@H](NC(=O)[C@@H](NC(=O)[C@H](CO)NC(=O)[C@H](Cc1ccccc1)NC(=O)[C@H](CC(C)C)NC(=O)[C@H](CO)NC(=O)[C@H](CC(C)C)NC(=O)[C@H](CC(C)C)NC(=O)[C@@H](N)Cc1ccc(O)cc1)[C@@H](C)O)C(=O)O [3102.0750] (H-YLLSLFSTL-OH),8.40
12,CSCC[C@H](N)C(=O)N[C@@H](CC(C)C)C(=O)N[C@@H](CC(C)C)C(=O)N[C@@H](CCCCN)C(=O)N[C@@H](CCCCN)C(=O)N[C@@H](CC(C)C)C(=O)N[C@@H](CC(N)=O)C(=O)N[C@@H](CO)C(=O)N[C@@H](Cc1ccccc1)C(=O)O [3102.0753] (H-MLLKKLNSF-OH),9.24
13,CC(C)C[C@H](NC(=O)[C@H](CO)NC(=O)[C@H](C)NC(=O)[C@H](Cc1ccccc1)NC(=O)[C@H](CCCCN)NC(=O)[C@H](C)NC(=O)[C@H](Cc1ccc(O)cc1)NC(=O)[C@@H](NC(=O)[C@@H](N)[C@@H](C)O)C(C)C)C(=O)O [3102.0754] (H-TVYAKFASL-OH),8.80
14,CC(C)C[C@H](NC(=O)[C@H](CCCNC(=N)N)NC(=O)[C@H](Cc1c[nH]cn1)NC(=O)[C@H](CC(C)C)NC(=O)[C@H](Cc1ccc(O)cc1)NC(=O)[C@H](CCCNC(=N)N)NC(=O)[C@H](CCCNC(=N)N)NC(=O)[C@@H]1CCCN1C(=O)[C@@H](N)CS)C(=O)O [3102.0755] (H-CPRRYLHRL-OH),8.57
15,CC[C@H](C)[C@H](NC(=O)[C@@H](NC(=O)[C@H](C)N)[C@@H](C)O)C(=O)N[C@@H](CCC(N)=O)C(=O)N[C@@H](CCCNC(=N)N)C(=O)N[C@@H](Cc1ccccc1)C(=O)N[C@@H](CO)C(=O)N[C@@H](CO)C(=O)N[C@@H](CC(C)C)C(=O)O [3102.0756] (H-ATIQRFSSL-OH),8.48
16,CC[C@H](C)[C@H](NC(=O)[C@H](Cc1c[nH]cn1)NC(=O)[C@H](C)NC(=O)[C@H](Cc1ccc(O)cc1)NC(=O)[C@H](CC(C)C)NC(=O)[C@@H](N)CC(C)C)C(=O)N[C@@H](CC(N)=O)C(=O)N[C@@H](C)C(=O)N[C@@H](CC(C)C)C(=O)O [3102.0757] (H-LLYAHINAL-OH),8.85
17,N=C(N)NCCC[C@H](NC(=O)[C@H](CCCNC(=N)N)NC(=O)[C@@H](N)CC(=O)O)C(=O)N[C@@H](CO)C(=O)N[C@@H](Cc1ccccc1)C(=O)N[C@@H](Cc1ccccc1)C(=O)N[C@@H](CCCCN)C(=O)N[C@@H](CS)C(=O)N[C@@H](Cc1ccccc1)C(=O)O [3102.0758] (H-DRRSFFKCF-OH),7.12
18,CC(C)[C@H](NC(=O)[C@H](Cc1ccc(O)cc1)NC(=O)[C@H](CCCNC(=N)N)NC(=O)[C@H](Cc1ccccc1)NC(=O)[C@H](CS)NC(=O)[C@H](CCCCN)NC(=O)[C@H](Cc1ccccc1)NC(=O)[C@@H](N)Cc1ccccc1)C(=O)N[C@@H](Cc1ccccc1)C(=O)O [3102.0760] (H-FFKCFRYVF-OH),7.96
19,CSCC[C@H](NC(=O)CNC(=O)[C@@H](N)CO)C(=O)N[C@H](C(=O)N[C@@H](Cc1ccccc1)C(=O)N[C@H](C(=O)N[C@@H](CO)C(=O)N1CCC[C@H]1C(=O)N[C@H](C(=O)O)C(C)C)[C@@H](C)O)C(C)C [3102.0762] (H-SGMVFTSPV-OH),7.11
20,CC(C)C[C@H](NC(=O)[C@@H](N)Cc1c[nH]cn1)C(=O)N[C@@H](CCCCN)C(=O)N[C@@H](Cc1c[nH]cn1)C(=O)N[C@@H](Cc1c[nH]cn1)C(=O)N[C@@H](CCCCN)C(=O)N[C@@H](CCC(N)=O)C(=O)N[C@@H](CS)C(=O)N[C@H](C(=O)O)C(C)C [3102.0763] (H-HLKHHKQCV-OH),8.35
21,CC(C)C[C@H](NC(=O)[C@@H]1CCCN1C(=O)[C@H](CS)NC(=O)[C@H](CCCNC(=N)N)NC(=O)[C@H](CCCNC(=N)N)NC(=O)[C@H](CCCNC(=N)N)NC(=O)[C@H](CC(C)C)NC(=O)[C@H](Cc1ccccc1)NC(=O)[C@@H](N)CC(C)C)C(=O)O [3102.0764] (H-LFLRRRCPL-OH),9.89
22,CC[C@H](C)[C@H](N)C(=O)N[C@@H](CO)C(=O)N[C@@H](CCC(=O)O)C(=O)N[C@@H](CO)C(=O)N[C@@H](CCCNC(=N)N)C(=O)N[C@@H](Cc1ccccc1)C(=O)N[C@@H](CCC(N)=O)C(=O)N[C@@H](CO)C(=O)N[C@@H](CC(C)C)C(=O)O [3102.0767] (H-ISESRFQSL-OH),7.40
23,CC[C@H](C)[C@H](NC(=O)[C@H](CCCCN)NC(=O)[C@H](Cc1c[nH]cn1)NC(=O)[C@H](CCCCN)NC(=O)[C@@H](NC(=O)[C@H](CCCCN)NC(=O)[C@H](CO)NC(=O)[C@@H](N)CCSC)[C@@H](C)CC)C(=O)N[C@@H](Cc1ccccc1)C(=O)O [3102.0769] (H-MSKIKHKIF-OH),9.08
24,CC(C)C[C@H](NC(=O)[C@H](C)NC(=O)[C@H](CO)NC(=O)[C@H](Cc1ccccc1)NC(=O)[C@H](CCCCN)NC(=O)[C@H](CCCNC(=N)N)NC(=O)[C@H](CC(C)C)NC(=O)[C@H](Cc1ccc(O)cc1)NC(=O)[C@@H](N)CO)C(=O)O [3102.0770] (H-SYLRKFSAL-OH),8.22
25,CC(C)C[C@H](NC(=O)[C@H](Cc1ccccc1)NC(=O)[C@H](CCC(=O)O)NC(=O)[C@H](Cc1ccccc1)NC(=O)[C@H](CCCCN)NC(=O)[C@H](CCCCN)NC(=O)[C@H](CC(C)C)NC(=O)[C@H](CC(C)C)NC(=O)CN)C(=O)O [3102.0771] (H-GLLKKFEFL-OH),7.33
26,CC[C@H](C)[C@H](NC(=O)[C@H](CCC(=O)O)NC(=O)[C@H](CCCNC(=N)N)NC(=O)[C@H](CC(C)C)NC(=O)[C@@H](N)CCC(=O)O)C(=O)N[C@@H](Cc1ccccc1)C(=O)N[C@@H](CCCNC(=N)N)C(=O)N[C@@H](CCCNC(=N)N)C(=O)N[C@@H](CC(C)C)C(=O)O [3102.0772] (H-ELREIFRRL-OH),7.57
27,CC[C@H](C)[C@H](NC(=O)[C@H](CO)NC(=O)CNC(=O)[C@H](CCCCN)NC(=O)[C@H](CCCNC(=N)N)NC(=O)[C@H](CC(C)C)NC(=O)[C@H](CCCNC(=N)N)NC(=O)[C@H](CCCNC(=N)N)NC(=O)[C@@H](N)Cc1ccccc1)C(=O)O [3102.0773] (H-FRRLRKGSI-OH),8.52
28,CSCC[C@H](NC(=O)[C@@H](N)CCCNC(=N)N)C(=O)N[C@@H](CCCNC(=N)N)C(=O)N[C@@H](Cc1ccccc1)C(=O)N[C@@H](CCCCN)C(=O)N[C@@H](CCCCN)C(=O)NCC(=O)N[C@@H](C)C(=O)N[C@H](C(=O)O)C(C)C [3102.0775] (H-RMRFKKGAV-OH),8.27
29,CSCC[C@H](NC(=O)[C@H](C)NC(=O)[C@@H](N)CCSC)C(=O)N[C@@H](Cc1ccccc1)C(=O)N[C@@H](Cc1ccc(O)cc1)C(=O)N[C@@H](C)C(=O)N[C@@H](Cc1c[nH]cn1)C(=O)N[C@@H](C)C(=O)N[C@@H](CC(C)C)C(=O)O [3102.0776] (H-MAMFYAHAL-OH),8.92
30,CC[C@H](C)[C@H](N)C(=O)N[C@@H](CCSC)C(=O)N[C@@H](CCCNC(=N)N)C(=O)N[C@@H](CCSC)C(=O)N[C@@H](CCCNC(=N)N)C(=O)N[C@@H](Cc1ccccc1)C(=O)N[C@@H](CCCCN)C(=O)N[C@@H](CCCCN)C(=O)NCC(=O)O [3102.0777] (H-IMRMRFKKG-OH),7.21
